# From US20050282159A1, “Rpob gene of streptomyces, primer specific to streptomyces, and identification method of streptomyces having rifampin resistance or sensitivity by using the same” (priority 2001, published 2005)
# What was measured:
# [1] = system: S. flavotricini KCCM 40520; conditions: TCG (TCC) genotype
# Protocol: The primer sets of SEQ ID NOs: 1 and 2 were used to amplify rpoB genes of 60 strains, and nucleotides of the 352-bp products were analyzed with an automatic sequencer. SRPOF1 as a forward primer and SRPOR1 as a backward primer were used.
# [2] = system: S. atroolvaceous KCTC 9017; assay: rifampin genotype by rpoB nucleotide sequence analysis
# Protocol: (§1) The primer sets of SEQ ID NOs: 1 and 2 were used to amplify rpoB genes of 60 strains, and nucleotides of the […] products were analyzed with an automatic sequencer. SRPOF1 as a forward primer and SRPOR1 as a backward primer were used.
# (§2) FIG. 8 is an electropherogram obtained by amplifying 306-bp rpoB gene fragment with the SRPOF1 and SRPOR1 primer set and automatically sequencing with an SRPOF1 primer.
# [3] = system: S. anthocyanicus KCTC 9755; assay: as above; conditions: AAC genotype
# Protocol: as §1, §2
# [4] = system: S. anabdii KCTC 9687; assay: as above; conditions: TCG (TCC) genotype
# Protocol: as §1
# [5] = system: S. coralus KCCM 40642; assay: as above; conditions: TCG (TCC) genotype
# Protocol: as §1
# [6] = system: S. caseius KCCM 40740; assay: as above; conditions: TCG (TCC) genotype
# Protocol: as §1
# [7] = system: S. alboviridis KCTC 9750; assay: rifampin-sensitive test on Bennet solid media; type: cell-based; design: key to genotype (rifampin-resistance or susceptibility): “(+)” indicates a genotype with rifampin-resistance; “(−)” indicates a genotype with rifampin-susceptibility
# Protocol: (§3) The 47 strains were respectively cultured at 28° C. for 72 hr in Bennet liquid media. The culture solution was then inoculated on Bennet solid media (yeast extract 1 g/L, Beef extract 1 g/L, Tryptone 2 g/L, Glycerol 10 g/L, Agar 15 g/L) containing 25 ug/ml rifampin, and after incubation for 72 hr, rifampin-resistance was tested.
# [8] = system: S. cinerous KCTC 9066; assay: rifampin-sensitive test on Bennet solid media; type: cell-based; design: key to genotype (rifampin-resistance or susceptibility): “(+)” indicates a genotype with rifampin-resistance; “(−)” indicates a genotype with rifampin-susceptibility
# Protocol: as §3
# [9] = system: 47 strains of Streptomyces references; assay: rifampin-sensitive test on Bennet solid media (summary); type: cell-based; conditions: 25 ug/ml rifampin, 72 hr
# Protocol: A total of 47 strains of Streptomyces references including 24 reference strains having AAC encoding Asp and 23 reference strains having TCG or TCC encoding Ser at the sequenced positions were used, and 306-bI rpoB nucleotide sequences of the […] strains are shown in SEQUENCE LISTING.
# as §3
smiles,measurement,setting,value
CO[C@H]1/C=C/O[C@@]2(C)Oc3c(C)c(O)c4c(O)c(c(/C=N/N5CCN(C)CC5)c(O)c4c3C2=O)NC(=O)/C(C)=C\C=C\[C@H](C)[C@H](O)[C@@H](C)[C@@H](O)[C@@H](C)[C@H](OC(C)=O)[C@@H]1C [rifampin],genotype (rifampin-resistant or -sensitive strain),[1],−
same,rifampin resistance or sensitivity of the strain,"[2]; S. atroolvaceous (KCTC9017), TCG genotype, identical to the known sensitivity results",rifampin-sensitive strains
same,genotype (rifampin-resistant or -sensitive strain),"[2]; S. atroolvaceous KCTC 9017, TCG (TCC) genotype",−
same,rifampin resistance or sensitivity of the strain,"[3]; S. anthocyanicus (KCTC 9755), identical to the known sensitivity results",rifampin-resistant strain
same,genotype (rifampin-resistant or -sensitive strain),[3]; S. anthocyanicus KCTC 9755,+
same,genotype (rifampin-resistant or -sensitive strain),[4],−
same,genotype (rifampin-resistant or -sensitive strain),[5],−
same,genotype (rifampin-resistant or -sensitive strain),[6],−
same,growth in media containing rifampin,"[7]; S. alboviridis (KCTC 9750), Bennet solid media, FIG. 7 (B)",did not show growth
same,genotype (rifampin-resistance or susceptibility),"[7]; S. alboviridis KCTC 9750, TCG (TCC) genotype, 25 ug/ml rifampin, 72 hr",−
same,growth in media containing rifampin,"[8]; S. cinerous (KCTC 9066), Bennet solid media, FIG. 7 (A)",generated colonies
same,genotype (rifampin-resistance or susceptibility),"[8]; S. cinerous KCTC 9066, AAC genotype, 25 ug/ml rifampin, 72 hr",+
same,rifampin resistance or sensitivity of the strains,[9]; all 24 strains having AAC genotypes,rifampin-resistant strains
same,rifampin resistance or sensitivity of the strains,[9]; the 23 strains having TCG or TCC genotypes,rifampin-sensitive strains
